# Biological target: T1, EZH2 within the PRC2 complex (Homo sapiens, UniProt Q15910)
# T1 construct: FLAG; made in house; host or cells: Sf9 cells
# Test: EZH2 methyltransferase scintillation proximity assay (SPA)
# Assay type: biochemical
# Settings: Human PRC2 5 member complex (FLAG-EZH2, EED, SUZ12, RbAp48, AEBP2), 1 nM enzyme, biotinylated histone H3K27 peptide, 3H-SAM, 60 min at room temperature
# Procedure: Compounds contained herein were evaluated for their ability to inhibit the methyltransferase activity of EZH2 within the PRC2 complex. Human PRC2 complex was prepared by co-expressing each of the 5 member proteins (FLAG-EZH2, EED, SUZ12, RbAp48, AEBP2) in Sf9 cells followed by co-purification. Enzyme activity was measured in a scintillation proximity assay (SPA) where a tritiated methyl group is transferred from 3H-SAM to a lysine residue on a biotinylated, unmethylated peptide substrate derived from histone H3. The peptides were captured on streptavidin-coated SPA beads and the resulting signal was read on a ViewLux plate reader.
# • 1. Prepare 10 mM stock of compounds from solid in 100% DMSO. • 2. Set up an 11-point serial dilution (1:4 dilution, top concentration 10 mM) in 100% DMSO for each test compound in a 384 well plate leaving columns 6 and 18 for DMSO controls. • 3. Dispense 10 nL of compound from the dilution plate into reaction plates (Corning, 384-well polystyrene NBS, Cat#3673).
# Prepare the following solutions: • 1. 1× Base Buffer, 50 mM Tris-HCl, pH 8, 2 mM MgCl2: Per 1 L of base buffer, combine 1 M Tris-HCl, pH 8 (50 mL), 1 M MgCl2 (2 mL), and distilled water (948 mL). • 2. 1× Assay Buffer: Per 10 mL of 1× Assay Buffer, combine 1× Base Buffer (9.96 mL), 1 M DTT (40 uL), and 10% Tween-20 (1 uL) to provide a final concentration of 50 mM Tris-HCl, pH 8, 2 mM MgCl2, 4 mM DTT, 0.001% Tween-20. • 3. 2× Enzyme Solution: Per 10 mL of 2× Enzyme Solution, combine 1× Assay Buffer (9.99 mL) and 3.24 uM EZH2 5 member complex (6.17 uL) to provide a final enzyme concentration of 1 nM. • 4. SPA Bead Solution: Per 1 mL of SPA Bead Solution, combine Streptavidin coated SPA beads (PerkinElmer, Cat# RPNQ0261, 40 mg) and 1× Assay Buffer (1 mL) to provide a working concentration of 40 mg/mL. • 5. 2× Substrate Solution: Per 10 mL of 2× Substrate Solution, combine 40 mg/mL SPA Bead Solution (375 uL), 1 mM biotinylated histone H3K27 peptide (200 uL), 12.5 uM 3H-SAM (240 uL; 1 mCi/mL), 1 mM cold SAM (57 uL), and 1× Assay Buffer (9.13 mL) to provide a final concentration of 0.75 mg/mL SPA Bead Solution, 10 uM biotinylated histone H3K27 peptide, 0.15 uM 3H-SAM (˜12 uCi/mL 3H-SAM), and 2.85 uM cold SAM. • 6. 2.67× Quench Solution: Per 10 mL of 2.67× Quench Solution, combine 1× Assay Buffer (9.73 mL) and 10 mM cold SAM (267 uL) to provide a final concentration of 100 uM cold SAM.
# • 1. Stamp 10 nL/well of 1000× Compound to test wells (as noted above). • 2. Stamp 10 nL/well of 100% DMSO to columns 6 & 18 (high and low controls, respectively).
# • 1. Dispense 5 uL/well of 1× Assay Buffer to column 18 (low control reactions). • 2. Dispense 5 uL/well of 2× Substrate Solution to columns 1-24 (note: substrate solution should be mixed to ensure homogeneous bead suspension before dispensing into matrix reservoir). • 3. Dispense 5 uL/well of 2× Enzyme Solution to columns 1-17, 19-24. • 4. Incubate the reaction for 60 min at room temperature.
# • 1. Dispense 6 uL/well of the 2.67× Quench Solution to columns 1-24. • 2. Seal assay plates and spin for ˜1 min at 500 rpm. • 3. Dark adapt plates in the ViewLux instrument for 15-60 min.
# • 1. Read the assay plates on the Viewlux Plate Reader utilizing the 613 nm emission filter or clear filter (300 s exposure). Reagent addition can be done manually or with automated liquid handler.
# Percent inhibition was calculated relative to the DMSO control for each compound concentration and the resulting values were fit using standard IC50 fitting parameters within the ABASE data fitting software package.
# The IC50 values of <10 nM indicate that the activity of compound was approaching the limit of detection in the assay. Repeating the assay run(s) may result in somewhat different IC50 values.
# T1 sequence (Q15910 whole entry): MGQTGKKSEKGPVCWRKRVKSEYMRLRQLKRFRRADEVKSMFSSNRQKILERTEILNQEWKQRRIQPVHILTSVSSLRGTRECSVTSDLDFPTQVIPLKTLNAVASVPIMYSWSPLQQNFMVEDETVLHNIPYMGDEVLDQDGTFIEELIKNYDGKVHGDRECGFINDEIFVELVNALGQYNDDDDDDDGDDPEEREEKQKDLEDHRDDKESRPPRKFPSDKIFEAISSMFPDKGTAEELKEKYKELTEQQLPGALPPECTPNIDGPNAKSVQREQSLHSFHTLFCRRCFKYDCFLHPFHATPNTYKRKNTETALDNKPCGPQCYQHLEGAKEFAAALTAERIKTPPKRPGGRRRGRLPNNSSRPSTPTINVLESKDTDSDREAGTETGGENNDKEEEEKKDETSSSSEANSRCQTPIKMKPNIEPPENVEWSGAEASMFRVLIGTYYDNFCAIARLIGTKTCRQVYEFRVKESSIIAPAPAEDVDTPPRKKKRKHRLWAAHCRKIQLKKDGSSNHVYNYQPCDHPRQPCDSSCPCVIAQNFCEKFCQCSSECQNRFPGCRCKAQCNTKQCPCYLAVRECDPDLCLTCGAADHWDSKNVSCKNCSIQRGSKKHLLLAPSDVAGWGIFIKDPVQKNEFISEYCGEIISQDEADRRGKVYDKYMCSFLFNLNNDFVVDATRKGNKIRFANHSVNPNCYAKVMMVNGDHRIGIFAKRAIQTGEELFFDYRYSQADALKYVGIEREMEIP
# T1 sequence (O75530 whole entry partner): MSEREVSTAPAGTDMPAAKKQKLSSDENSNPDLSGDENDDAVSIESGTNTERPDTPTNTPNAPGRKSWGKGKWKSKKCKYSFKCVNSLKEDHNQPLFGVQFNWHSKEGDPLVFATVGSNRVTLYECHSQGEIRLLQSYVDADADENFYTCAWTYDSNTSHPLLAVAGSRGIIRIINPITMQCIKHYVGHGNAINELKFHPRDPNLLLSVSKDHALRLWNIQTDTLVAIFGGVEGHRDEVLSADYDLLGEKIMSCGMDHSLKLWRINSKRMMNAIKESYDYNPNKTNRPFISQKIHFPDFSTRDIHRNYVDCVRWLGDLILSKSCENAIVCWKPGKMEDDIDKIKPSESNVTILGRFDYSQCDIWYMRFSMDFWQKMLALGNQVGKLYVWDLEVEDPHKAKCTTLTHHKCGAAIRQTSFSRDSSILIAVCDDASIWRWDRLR
# T1 sequence (Q15022 whole entry partner): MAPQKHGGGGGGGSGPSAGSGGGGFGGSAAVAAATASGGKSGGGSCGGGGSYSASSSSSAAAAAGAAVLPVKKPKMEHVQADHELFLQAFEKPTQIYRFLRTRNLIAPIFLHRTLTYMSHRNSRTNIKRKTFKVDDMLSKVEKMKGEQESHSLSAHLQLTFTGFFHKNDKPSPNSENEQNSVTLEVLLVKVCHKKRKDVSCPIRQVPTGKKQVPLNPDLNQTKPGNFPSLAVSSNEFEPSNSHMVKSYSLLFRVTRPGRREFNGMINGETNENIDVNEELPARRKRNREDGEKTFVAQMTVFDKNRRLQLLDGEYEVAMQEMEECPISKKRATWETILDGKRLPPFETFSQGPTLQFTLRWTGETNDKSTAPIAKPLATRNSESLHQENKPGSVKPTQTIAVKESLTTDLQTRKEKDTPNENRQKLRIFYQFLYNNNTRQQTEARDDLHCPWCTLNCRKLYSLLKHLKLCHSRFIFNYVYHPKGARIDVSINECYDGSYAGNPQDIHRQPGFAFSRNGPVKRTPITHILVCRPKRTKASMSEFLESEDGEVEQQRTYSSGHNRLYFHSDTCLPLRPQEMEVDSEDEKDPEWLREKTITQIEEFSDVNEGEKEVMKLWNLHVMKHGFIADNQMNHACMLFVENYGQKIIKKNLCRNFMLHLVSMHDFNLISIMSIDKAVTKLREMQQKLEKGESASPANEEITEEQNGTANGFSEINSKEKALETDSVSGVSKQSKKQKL
# T1 sequence (Q09028 whole entry partner): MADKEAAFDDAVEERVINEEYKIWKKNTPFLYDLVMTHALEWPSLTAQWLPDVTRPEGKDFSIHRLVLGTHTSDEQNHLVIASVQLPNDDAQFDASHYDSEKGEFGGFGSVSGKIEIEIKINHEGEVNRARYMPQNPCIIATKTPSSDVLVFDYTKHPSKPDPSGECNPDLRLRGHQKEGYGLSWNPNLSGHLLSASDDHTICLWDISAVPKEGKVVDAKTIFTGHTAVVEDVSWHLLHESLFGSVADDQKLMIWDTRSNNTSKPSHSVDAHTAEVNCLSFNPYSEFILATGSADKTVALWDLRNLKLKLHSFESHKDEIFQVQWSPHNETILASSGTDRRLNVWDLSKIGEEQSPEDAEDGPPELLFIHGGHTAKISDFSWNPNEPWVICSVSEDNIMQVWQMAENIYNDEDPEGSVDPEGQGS
# T1 sequence (Q6ZN18 whole entry partner): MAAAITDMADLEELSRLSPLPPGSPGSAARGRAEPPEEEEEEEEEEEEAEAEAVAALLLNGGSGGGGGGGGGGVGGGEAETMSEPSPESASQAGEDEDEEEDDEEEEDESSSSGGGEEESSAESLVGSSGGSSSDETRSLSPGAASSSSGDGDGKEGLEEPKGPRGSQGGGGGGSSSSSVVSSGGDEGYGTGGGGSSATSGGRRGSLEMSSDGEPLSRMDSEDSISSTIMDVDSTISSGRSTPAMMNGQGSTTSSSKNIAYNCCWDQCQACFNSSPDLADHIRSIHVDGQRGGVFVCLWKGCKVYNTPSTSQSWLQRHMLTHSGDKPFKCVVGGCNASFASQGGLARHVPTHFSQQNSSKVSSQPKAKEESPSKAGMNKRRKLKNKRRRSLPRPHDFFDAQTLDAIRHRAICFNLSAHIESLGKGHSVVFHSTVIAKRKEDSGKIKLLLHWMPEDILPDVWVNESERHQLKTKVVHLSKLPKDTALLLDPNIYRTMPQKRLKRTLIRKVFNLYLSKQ
row,IC50 [nM],SMILES
1,50,"CCC(c1scc(C(=O)NCc2c(C)cc(C)[nH]c2=O)c1C)C1CCN(CC(C)(C)F)CC1 (racemic) [Example 6, N-((4,6-Dimethyl-2-oxo-1,2-dihydropyridin-3-yl)methyl)-5-(1-(1-(2-fluoro-2-methylpropyl)piperidin-4-yl)propyl)-4-methylthiophene-3-carboxamide]"
2,20,"CCC(c1scc(C(=O)NCc2c(C)cc(C)[nH]c2=O)c1C)C1CCN(CC(F)(F)F)CC1 (racemic) [Example 11, N-((4,6-Dimethyl-2-oxo-1,2-dihydropyridin-3-yl)methyl)-4-methyl-5-(1-(1-(2,2,2-trifluoroethyl)piperidin-4-yl)propyl)thiophene-3-carboxamide]"
3,40,"CCC(c1scc(C(=O)NCc2c(C)cc(C)[nH]c2=O)c1C)C1CCN(CC(F)F)CC1 (racemic) [Example 14, 5-(1-(1-(2,2-Difluoroethyl)piperidin-4-yl)propyl)-N-((4,6-dimethyl-2-oxo-1,2-dihydropyridin-3-yl)methyl)-4-methylthiophene-3-carboxamide]"
4,16,"CCC(=C1CCN(CC(C)(F)F)CC1)c1scc(C(=O)NCc2c(C)cc(C)[nH]c2=O)c1C [Example 1, 5-(1-(1-(2,2-Difluoropropyl)piperidin-4-ylidene)propyl)-N-((4,6-dimethyl-2-oxo-1,2-dihydropyridin-3-yl)methyl)-4-methylthiophene-3-carboxamide]"
5,≤ 10,"CCC(=C1CCN(CC(C)(C)F)CC1)c1scc(C(=O)NCc2c(C)cc(C)[nH]c2=O)c1C [Example 2, N-((4,6-Dimethyl-2-oxo-1,2-dihydropyridin-3-yl)methyl)-5-(1-(1-(2-fluoro-2-methylpropyl)piperidin-4-ylidene)propyl)-4-methylthiophene-3-carboxamide]"
6,≤ 10,"CCC(=C1CCN(CC(F)(F)F)CC1)c1scc(C(=O)NCc2c(C)cc(C)[nH]c2=O)c1C [Example 3, N-((4,6-Dimethyl-2-oxo-1,2-dihydropyridin-3-yl)methyl)-4-methyl-5-(1-(1-(2,2,2-trifluoroethyl)piperidin-4-ylidene)propyl)thiophene-3-carboxamide]"
7,20,"CC[C@@H](c1scc(C(=O)NCc2c(C)cc(C)[nH]c2=O)c1C)C1CCN(CC(C)(F)F)CC1 [Example 4, (R)-5-(1-(1-(2,2-Difluoropropyl)piperidin-4-yl)propyl)-N-((4,6-dimethyl-2-oxo-1,2-dihydropyridin-3-yl)methyl)-4-methylthiophene-3-carboxamide]"
8,501,"CC[C@H](c1scc(C(=O)NCc2c(C)cc(C)[nH]c2=O)c1C)C1CCN(CC(C)(F)F)CC1 [Example 5, (S)-5-(1-(1-(2,2-Difluoropropyl)piperidin-4-yl)propyl)-N-((4,6-dimethyl-2-oxo-1,2-dihydropyridin-3-yl)methyl)-4-methylthiophene-3-carboxamide]"
9,20,"CCC(=C1CCN(N(C)C)CC1)c1scc(C(=O)NCc2c(C)cc(C)[nH]c2=O)c1C [Example 7, N-((4,6-Dimethyl-2-oxo-1,2-dihydropyridin-3-yl)methyl)-5-(1-(1-(dimethylamino)piperidin-4-ylidene)propyl)-4-methylthiophene-3-carboxamide]"
10,16,"CCC(=C1CCN(O)CC1)c1scc(C(=O)NCc2c(C)cc(C)[nH]c2=O)c1C [Example 8, N-((4,6-Dimethyl-2-oxo-1,2-dihydropyridin-3-yl)methyl)-5-(1-(1-hydroxypiperidin-4-ylidene)propyl)-4-methylthiophene-3-carboxamide]"
11,50,CCC(c1sc2c(c1C)C(=O)N(Cc1c(C)cc(C)[nH]c1=O)CC2)N1CCC(N(C)C)CC1 (stereo not drawn) [Example 9]
12,≤ 10,"CCC(=C1CCC(O)CC1)c1scc(C(=O)NCc2c(C)cc(C)[nH]c2=O)c1C (stereo not drawn) [Example 10, N-((4,6-Dimethyl-2-oxo-1,2-dihydropyridin-3-yl)methyl)-5-(1-(4-hydroxycyclohexylidene)propyl)-4-methylthiophene-3-carboxamide]"

# From patent US20170334891A1, “ENHANCER OF ZESTE HOMOLOG 2 INHIBITORS” (GLAXOSMITHKLINE INTELLECTUAL PROPERTY (NO.2) LIMITED, priority 2014, published 2017)
